According to patent publication US10730889B2, “Amido spirocyclic amide and sulfonamide derivatives” (Forma TM, LLC, priority 2012, dated 2020):
Read-outs that look alike come from different tables or passages of the source.

Test system: A2780 cells
Assay: In-vitro cell proliferation assay (SRB, 72 hours)
Type: cell-based
Conditions: A2780 cells, 72 hours, SRB, read-out: Cell Proliferation (IC50)

Row | SMILES | IC50 (Homo sapiens, A2780, 72 h) | IC50
1 | O=C(NCC1CC12CCN(C(=O)CC1CCCO1)CC2)c1cc2ccncc2o1 (stereo not drawn) [Example 37, N-[[6-(2-tetrahydrofuran-2-ylacetyl)-6-azasptro[2.5]octan-2-yl]methyl]furo[2,3-c]pyridine-2-carboxamide] | 643 nM | 
2 | O=C(NCC1CC12CCN(C(=O)c1cc(C3CC3)n[nH]1)CC2)N1Cc2ccncc2C1 (stereo not drawn) [Example 353, N-[[6-(3-cyclopropyl-1H-pyrazole-5-carbonyl)-6-azaspiro[2.5]octan-2-yl]methyl]-1,3-dihydropyrrolo[3,4-c]pyridine-2-carboxamide] | 7.55 nM | 
3 | CC(C)(C)OC(=O)N1CCC2(CC1)CC(CNC(=O)c1cc3cnccc3[nH]1)C2 [Example 193, tert-butyl 2-[(1H-pyrrolo[3,2-c]pyridine-2-carbonylamino)methyl]-7-azaspiro[3.5]nonane-7-carboxylate] | 2000 nM | 
4 | O=C(Cc1cccnc1)N1CCC2(CC1)CC2CNC(=O)N1Cc2ccncc2C1 (stereo not drawn) [Example 177] | 34.4 nM | 
5 | CC(=O)Nc1cc(C(=O)N2CCC3(CC2)CC3CNC(=O)c2cc3ccncc3o2)ccn1 (stereo not drawn) [Example 133, N-[[6-(2-acetamidopyridine-4-carbonyl)-6-azaspiro[2.5]octan-2-yl]methyl]furo[2,3-c]pyridine-2-carboxamide] | 696 nM | 
6 | CC(C)NC(=O)N1CCC2(CC1)CC2CNC(=O)c1cc2ccncc2o1 (stereo not drawn) [Example 183, N-[[6-(isopropylcarbamoyl)-6-azaspiro[2.5]octan-2-yl]methyl]furo[2,3-c]pyridine-2-carboxamide] | 2000 nM | 
7 | O=C(NCC1CC12CCN(C(=O)c1cnc3ccccc3n1)CC2)c1cc2ccncc2o1 (stereo not drawn) [Example 269] | 16 nM | 
8 | Cc1nn(C)c(C)c1C(=O)N1CCC2(CC1)CC2CNC(=O)c1cc2ccncc2o1 (single isomer, unassigned) [Example 301, N-[[6-(1,3,5-trimethylpyrazole-4-carbonyl)-6-azaspiro[2.5]octan-2-yl]methyl]furo[2,3-c]pyridine-2-carboxamide] |  | 4.21 nM
9 | O=C(NCC1CC12CCN(C(=O)c1ccncn1)CC2)c1cc2ccncc2o1 (stereo not drawn) [Example 102, N-[[6-(pyrimidine-4-carbonyl)-6-azaspiro[2.5]octan-2-yl]methyl]furo[2,3-c]pyridine-2-carboxamide] | 2000 nM | 
10 | CN1CCN(CC(=O)N2CCC3(CC2)CC3CNC(=O)c2cc3ccncc3o2)CC1 (stereo not drawn) [Example 30, N-[[6-[2-(4-methylpiperazin-1-yl)acetyl]-6-azaspiro[2.5]octan-2-yl]methyl]furo[2,3-c]pyridine-2-carboxamide] | 614 nM | 
11 | O=C(NCc1ccccc1)N1CCC2(CC1)CC2CNC(=O)N1Cc2ccncc2C1 (stereo not drawn) [Example 210, N-[[6-(benzylcarbamoyl)-6-azaspiro[2.5]octan-2-yl]methyl]-1,3-dihydropyrrolo[3,4-c]pyridine-2-carboxamide] | 316 nM | 
12 | C=C/N=C\C1=CCN(C(=O)NCC2CC23CCN(C(=O)CCC(C)(C)O)CC3)C1 (stereo not drawn) [Example 360, N-[[6-(4-hydroxy-4-methyl-pentanoyl)-6-azaspiro[2.5]octan-2-yl]methyl]-1,3-dihydropyrroIo[3,4-c]pyridine-2-carboxamide] | 50.9 nM | 
13 | O=C(NCC1CC12CCN(C(=O)c1ccccn1)CC2)c1cc2ccncc2o1 (stereo not drawn) [Example 98, N-[[6-(pyridine-2-carbonyl)-6-azaspiro[2.5]octan-2-yl]methyl]furo[2,3-c]pyridine-2-carboxamide] | 2000 nM | 
14 | Cc1c(C(=O)N2CCC3(CC2)CC3CNC(=O)c2cc3ccncc3o2)cnn1C (stereo not drawn) [Example 330, N-[[6-(1,5-dmiethylpyrazole-4-carbonyl)-6-azaspiro[2.5]octan-2-yl]methyl]furo[2,3-c]pyridine-2-carboxamide] | 159 nM | 
15 | O=C(CC1CCCCC1)N1CCC2(CC1)CC2CNC(=O)N1Cc2ccncc2C1 (stereo not drawn) [Example 196, N-[[6-(2-cyclohexylacetyl)-6-azaspiro[2.5]octan-2-yl]methyl]-1,3-dihydropyrrolo[3,4-c]pyridine-2-carboxamide] | 3.67 nM | 
16 | O=C(NCC1CC12CCN(C(=O)C1CCOC1)CC2)c1cc2ccncc2o1 (stereo not drawn) [Example 59, N-[[6-(tetrahydrofuran-3-carbonyl)-6-azaspiro[2.5]octan-2-yl]methyl]furo[2,3-c]pyridine-2-carboxamide] | 2000 nM | 
17 | Cc1cccc2nc(C(=O)N3CCC4(CC3)CC4CNC(=O)c3cc4ccncc4o3)cn12 (stereo not drawn) [Example 311, N-[[6-(5-methylimidazo[1,2-a]pyridine-2-carbonyl)-6-azaspiro[2.5]octan-2-yl]methyl]furo[2,3-c]pyridine-2-carboxamide] | 12.1 nM | 
18 | CC1(CC(=O)N2CCC3(CC2)CC3CNC(=O)c2cc3ccncc3o2)COC1 (stereo not drawn) [Example 195, N-[[6-[2-(3-methyloxetan-3-yl)acetyl]-6-azaspiro[2.5]octan-2-yl]methyl]furo[2,3-c]pyridine-2-carboxamide] | 218 nM | 

Row | SMILES | IC50 (Homo sapiens, A2780, 72 h) | IC50
19 | O=C(NCC1CC12CCN(S(=O)(=O)Cc1ccccc1)CC2)N1Cc2ccncc2C1 (stereo not drawn) [Example 211, N-[(6-benzylsulfonyl-6-azaspiro[2.5]octan-2-yl)methyl]-1,3-dihydropyrrolo[3,4-c]pyridine-2-carboxamide] | 131 nM | 
20 | Cc1nnnn1Cc1ccc(C(=O)N2CCC3(CC2)CC3CNC(=O)c2cc3ccncc3o2)cc1 (stereo not drawn) [Example 96, N-[[6-[4-[(5-methyltetrazol-1-yl]methyl]benzoyl]-6-azaspiro[2.5]octan-2-yl]methyl]furo[2,3-c]pyridine-2-carboxamide] | 711 nM | 
21 | O=C(Cc1ccccn1)N1CCC2(CC1)CC2CNC(=O)N1Cc2ccncc2C1 (stereo not drawn) [Example 176, N-[[6-[2-(2-pyridyl)acetyl]-6-azaspiro[2.5]octan-2-yl]methyl] 1,3-dihydropyrrolo[3,4-c]pyridine-2-carboxamide] | 34.1 nM | 
22 | O=C(NCC1CC12CCN(C(=O)C1CCCO1)CC2)c1cc2ccncc2o1 (stereo not drawn) [Example 61, N-[[6-(tetrahydrofuran-2-carbonyl)-6-azaspiro[2.5]octan-2-yl]methyl]furo[2,3-c]pyridine-2-carboxamide] | 2000 nM | 
23 | CC(C)N1CCC(n2cc(C(=O)N3CCC4(CC3)CC4CNC(=O)c3cc4ccncc4o3)cn2)C1 (stereo not drawn) [Example 303, N-[[6-(1-(1-isopropylpyrrolidin-3-yl)pyrazole-4-carbonyl]-6-azaspiro[2.5]octan-2-yl]methyl]furo[2,3-c]pyridine-2-carboxamide] | 2000 nM | 
24 | O=C(NCC1CC12CCN(C(=O)c1cnco1)CC2)c1cc2ccncc2o1 (stereo not drawn) [Example 336, N-[[6-(oxazole-5-carbonyl)-6-azaspiro[2.5]octan-2-yl]methyl]furo[2,3-c]pyridine-2-carboxamide] | 63.5 nM | 
25 | CC(C)(O)COC(=O)N1CCC2(CC1)CC2CNC(=O)N1Cc2ccncc2C1 (stereo not drawn) [Example 376, (2-hydroxy-2-methyl-propyl) 2-[(1,3-dihydropyrrolo[3,4-c]pyridine-2-carbonylamino)methyl]-6-azaspiro[2.5]octane-6-carboxylate] | 16.1 nM | 
26 | Cc1nn(C)c(C)c1C(=O)N1CCC2(CC1)CC2CNC(=O)c1cc2ccncc2o1 (single isomer, unassigned) [Example 300, N-[[6-(1,3,5-trimethylpyrazole-4-carbonyl)-6-azaspiro[2.5]octan-2-yl]methyl]furo[2,3-c]pyridine-2-carboxamide] |  | 335 nM
27 | CC(C)N1CCC(CC(=O)N2CCC3(CC2)CC3CNC(=O)N2Cc3ccncc3C2)CC1 (stereo not drawn) [Example 188, N-[[6-[2-(1-isopropyl-4-piperidyl)acetyl]-6-azaspiro[2.5]octan-2-yl]methyl]-1,3-dihydropyrrolo[3,4-c]pyridine-2-carboxamide] | 45.3 nM | 
28 | O=CNCC(=O)N1CCC2(CC1)CC2CNC(=O)c1cc2ccncc2o1 (stereo not drawn) [Example 62, N-[[6-(2-formamidoacetyl)-6-azaspiro[2.5]octan-2-yl]methyl]furo[2,3-c]pyridine-2-carboxamide] | 2000 nM | 
29 | O=C(NCC1CC12CCN(C(=O)c1ccc3cccnc3n1)CC2)c1cc2ccncc2o1 (stereo not drawn) [Example 271, N-[[6-(1,8-naphthyridine-2-carbonyl)-6-azaspiro[2.5]octan-2-yl]methyl]furo[2,3-c]pyridine-2-carboxamide] | 139 nM | 
30 | CN1CCOC(C(=O)N2CCC3(CC2)CC3CNC(=O)c2cc3ccncc3o2)C1 (stereo not drawn) [Example 143, N-[[6-(4-methylmorpholine-2-carbonyl)-6-azaspiro[2.5]octan-2-yl]methyl]furo[2,3-c]pyridine-2-carboxamide] | 2000 nM | 
31 | O=C(NCC1CC12CCN(C(=O)c1cccc(-n3cnnc3)c1)CC2)c1cc2ccncc2o1 (stereo not drawn) [Example 70, N-[[6-[3-(1,2,4-triazol-4-yl)benzoyl]-6-azaspiro[2.5]octan-2-yl]methyl]furo[2,3-c]pyridine-2-carboxamide] | 492 nM | 
32 | O=C(NCC1CC12CCN(C(=O)c1nc[nH]n1)CC2)c1cc2ccncc2o1 (stereo not drawn) [Example 100, N-[[6-(1H-1,2,4-triazole-3-carbonyl)-6-azaspiro[2.5]octan-2-yl]methyl]furo[2,3-c]pyridine-2-carboxamide] | 2000 nM | 
33 | O=C(NCC1CC12CCN(C(=O)N1CCOCC1)CC2)N1Cc2ccncc2C1 (stereo not drawn) [Example 395, N-[[6-(morpholine-4-carbonyl)-6-azaspiro[2.5]octan-2-yl]methyl]-1,3-dihydropyrrolo[3,4-c]pyridine-2-carboxamide] | 24.3 nM | 
34 | Cc1cnccc1C(=O)N1CCC2(CC1)CC2CNC(=O)c1cc2ccncc2o1 (stereo not drawn) [Example 232, N-[[6-(3-methylpyridine-4-carbonyl)-6-azaspiro[2.5]octan-2-yl]methyl]furo[2,3-c]pyridine-2-carboxamide] | 207 nM | 
35 | CC(C)(C)OCC(=O)N1CCC2(CC1)CC2CNC(=O)c1cc2ccncc2o1 (stereo not drawn) [Example 38, N-[[6-(2-tert-butoxyacetyl)-6-azaspiro[2.5]octan-2-yl]methyl]furo[2,3-c]pyridine-2-carboxamide] | 18.8 nM | 
36 | CC(C)(C)OC(=O)N1CCC2(CC1)CC2CNC(=O)NCc1ccc2nccn2c1 (stereo not drawn) [Example 392, tert-butyl 2-[(imidazo[1,2-a]pyridin-6-ylmethylcarbamoylamino)methyl]-6-azaspiro[2.5]octane-6-carboxylate] | 2000 nM | 
